According to the supplement of paper PMC10307832:

Columns and labels:
Experiment in all cases: relative viability (nuclei count vs DMSO), 5 days (fraction); higher = more cells survive
MK-8033 + Vorinostat = compound: Cn1cc(-c2cnc3ccc4ccc(CS(=O)(=O)NCc5ccccn5)cc4c(=O)c3c2)cn1 [MK-8033] + O=C(CCCCCCC(=O)Nc1ccccc1)NO [Vorinostat] (partner 1 µM)
In short: (§1)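 After 5 days of treatment, lung cancer cells in 1536-well plates were fixed and stained in a single step (final 0.05% Triton X-100, 1% formaldehyde, 1 ug/ml Hoechst) and their nuclei counted on 4× images. Treatment had been applied by pin tool the day after seeding as one drug alone or as a fixed anchor-drug dose with five library-drug doses (not always all listed) in √10 steps. Relative viability is the nuclei count of treated wells divided by that of vehicle wells, and values are medians of duplicate plates.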

Irinotecan + Decitabine = compound: CCc1c2c(nc3ccc(OC(=O)N4CCC(N5CCCCC5)CC4)cc13)-c1cc3c(c(=O)n1C2)COC(=O)[C@]3(O)CC [Irinotecan] + Nc1ncn([C@H]2C[C@H](O)[C@@H](CO)O2)c(=O)n1 [Decitabine] (partner 2 µM)
In short: as §1

MK-8033 + Palbociclib = compound: Cn1cc(-c2cnc3ccc4ccc(CS(=O)(=O)NCc5ccccn5)cc4c(=O)c3c2)cn1 [MK-8033] + CC(=O)c1c(C)c2cnc(Nc3ccc(N4CCNCC4)cn3)nc2n(C2CCCC2)c1=O [Palbociclib] (partner 0.5 µM)
In short: as §1

Irinotecan + Alpelisib = compound: CCc1c2c(nc3ccc(OC(=O)N4CCC(N5CCCCC5)CC4)cc13)-c1cc3c(c(=O)n1C2)COC(=O)[C@]3(O)CC [Irinotecan] + Cc1nc(NC(=O)N2CCC[C@H]2C(N)=O)sc1-c1ccnc(C(C)(C)C(F)(F)F)c1 [Alpelisib] (partner 2 µM)
In short: as §1

Row | Cell Line | relative viability (MK-8033 + Vorinostat; first compound 0.02 µM) | relative viability (MK-8033 + Vorinostat; first compound 0.06325 µM) | relative viability (MK-8033 + Vorinostat; first compound 0.2 µM) | relative viability (MK-8033 + Vorinostat; first compound 0.6325 µM) | relative viability (MK-8033 + Vorinostat; first compound 2 µM) | relative viability (Irinotecan + Decitabine; first compound 0.6325 µM) | relative viability (Irinotecan + Decitabine; first compound 2 µM) | relative viability (Irinotecan + Decitabine; first compound 6.325 µM) | relative viability (Irinotecan + Decitabine; first compound 20 µM) | relative viability (MK-8033 + Palbociclib; first compound 0.02 µM) | relative viability (MK-8033 + Palbociclib; first compound 0.06325 µM) | relative viability (MK-8033 + Palbociclib; first compound 0.2 µM) | relative viability (MK-8033 + Palbociclib; first compound 0.6325 µM) | relative viability (MK-8033 + Palbociclib; first compound 2 µM) | relative viability (Irinotecan + Alpelisib; first compound 0.6325 µM) | relative viability (Irinotecan + Alpelisib; first compound 2 µM) | relative viability (Irinotecan + Alpelisib; first compound 6.325 µM) | relative viability (Irinotecan + Alpelisib; first compound 20 µM)
1 | HOP-62 | 0.549 | 0.617 | 0.61 | 0.717 | 0.588 | 0.22 | 0.198 | 0.187 | 0.212 | 0.469 | 0.41 | 0.425 | 0.496 | 0.446 | 0.244 | 0.171 | 0.158 | 0.129
2 | NCI-H1651 | 0.665 | 0.484 | 0.593 | 0.597 | 0.633 | 0.264 | 0.486 | 0.18 | 0.137 | 0.51 | 0.498 | 0.514 | 0.536 | 0.521 | 0.862 | 0.705 | 0.246 | 0.205
3 | NCI-H2126 | 0.671 | 0.554 | 0.72 | 0.798 | 0.822 | 0.503 | 0.372 | 0.295 | 0.267 | 0.336 | 0.37 | 0.346 | 0.353 | 0.311 |  | 0.384 | 0.289 | 0.312
4 | NCI-H650 | 0.512 | 0.5 | 0.496 | 0.428 | 0.371 | 0.246 | 0.213 | 0.168 | 0.091 | 0.346 | 0.316 | 0.324 | 0.316 | 0.307 | 0.889 | 0.432 | 0.229 | 0.323
5 | COR-L 105 | 0.88 | 0.891 | 0.708 | 0.782 | 0.547 | 0.605 | 0.586 | 0.555 | 0.364 | 0.429 | 0.388 | 0.394 | 0.464 | 0.418 | 1.08 | 1.18 | 0.648 | 0.444
6 | LK-2 | 0.245 | 0.259 | 0.397 | 0.307 | 0.357 | 0.285 | 0.379 | 0.226 | 0.216 | 0.623 | 0.528 | 0.686 | 0.885 | 0.502 | 1.17 | 1.4 | 0.487 | 0.259
7 | NCI-H2347 | 0.544 | 0.537 | 0.501 | 0.717 | 0.597 | 0.652 | 0.626 | 0.599 | 0.547 | 0.368 | 0.408 | 0.428 | 0.441 | 0.464 | 0.858 | 0.763 | 0.482 | 0.464
8 | PC-14 | 0.708 | 0.52 | 0.683 | 0.797 | 0.599 | 0.184 | 0.182 | 0.12 | 0.111 | 0.517 | 0.422 | 0.542 | 0.553 | 0.464 | 0.925 | 0.9 | 0.465 | 0.184
9 | NCI-H1793 | 0.675 |  | 0.559 | 0.713 | 0.618 |  | 0.315 | 0.262 | 0.258 | 0.263 |  | 0.274 | 0.288 | 0.291 |  | 0.668 | 0.383 | 0.259
